According to EPA's ToxValDB 9.5:
In brackets after ≈: the same amount, converted by molar mass. Several values for one entry are separate records, joined by “and”; a condition that tells them apart may be missing. Equal values may be shown once. One block for each molecule: values may come before it.

How the values were obtained:
[1] = system: Ovis sp.; conditions: subchronic; oral; diet; F; no effects
[2] = system: Oryctolagus sp.; conditions: for NOAEL: reproduction developmental; for LEL: no effects
[3] = system: Anas platyrhynchos; conditions: short-term; oral; feed; mortality
[4] = system: Rattus norvegicus
[5] = system: Colinus virginianus
[6] = system: Pontoscolex corethrurus; conditions: for LC50: acute, mortality
[7] = system: Mus musculus
[8] = system: Daphnia magna; conditions: acute; mortality
[9] = system: Bovidae; conditions: oral; for LEL: no effects
[10] = system: Sus scrofa; conditions: Not specified; for LEL: oral
[11] = system: Gallus gallus; conditions: for LEL: subchronic
[12] = system: Plant; conditions: not reported; other
[13] = system: Anabaena flosaquae; conditions: acute; duration: 72 hours; biomass
[14] = system: Capra sp.; conditions: subchronic; no effects
[15] = system: Numida meleagris; conditions: subchronic; duration: 85 days; no effects
[16] = system: Bibionidae; conditions: chronic/long-term; duration: 28 days; seedling emergence
[17] = system: Canidae; conditions: chronic; duration: 2 years; oral; Dog Other; ophthalmoscopic examination
[18] = system: Carassius carassius; conditions: not reported; oral; feed; histopathology: nonneoplastic
[19] = system: Pelteobagrus fulvidraco; conditions: subchronic; duration: 10 weeks; oral; feed; histopathology: nonneoplastic
[20] = system: Equus caballus; conditions: not reported; neurology
[21] = system: Felidae; conditions: short-term; duration: 10 days; oral; diet; Cat; no effects
[22] = system: Oncorhynchus mykiss; conditions: acute; duration: 3 days; oral; capsule; no effects
[23] = subchronic, duration: 57 days, diet

- LEL [1]: 0.3 mg/kg-day
Compound: Clc1ccc(C(c2ccccc2Cl)C(Cl)Cl)cc1 (stereo not given) [1-(2-Chlorophenyl)-1-(4-chlorophenyl)-2,2-dichloroethane]

Compound: c1nc[nH]n1 [1H-1,2,4-Triazole]
- NOAEL ([2]; body weight): 30 mg/kg-day
- LC50 [3]: > 1350 mg/kg-day
- NOAEL ([4]; chronic, duration: 12 months, body weight): 6.9 mg/kg-day
- NOAEL ([4]; reproduction developmental): 17 mg/kg-day (2×) and 30 mg/kg-day (2×)
- LC50 ([5]; acute, oral, diet, mortality): > 1410 mg/kg-day

Compound: C/C=C(\C)C(=O)O [2-Butenoic acid, 2-methyl-, (2E)-]
- LC50 [6]: 2010 mg/kg

Compound: CC1=C(/C=C/C(C)=C/C=C/C(C)=C/C=C/C=C(C)/C=C/C=C(C)/C=C/C2=C(C)C(=O)[C@@H](O)CC2(C)C)C(C)(C)C[C@H](O)C1=O [3,3'-Dihydroxy-beta-carotene-4,4'-dione]
- NOAEL ([7]; chronic, duration: 80 weeks, oral, body weight): 14 mg/kg-day

Compound: CC=Cc1ccc(OC)c(OC)c1 [4-Prop-1-enylveratrole]
- NOAEL ([4]; short-term, duration: 28 days, oral, organ weight): 100 mg/kg-day
- NOAEL (repeat dose other): 6 mg/kg-day

Compound: CC/C=C\CCOC(C)OCC (stereo not drawn) [Acetaldehyde ethyl cis-3-hexenyl acetal]
- LC50 [8]: 12 µg/mL (≈ 69.7 µM)
- LC50 [6]: 238 mg/kg

Compound: CC(C)(c1ccc(O)cc1)c1ccc(O)cc1 [Bisphenol A]
- NOAEL ([7]; reproduction developmental, M/F, CD1, organ weight): 5 mg/kg-day

Compound: O=c1c(CO)c/c(=N/Nc2ccc(S(=O)(=O)[O-])c3ccccc23)c(=O)/c1=N/Nc1ccc(S(=O)(=O)[O-])c2ccccc12.[Na+].[Na+] [Chocolate Brown HT]
- NOAEL ([7]; chronic, duration: 80 weeks, oral, diet, M/F, histopathology: nonneoplastic): 143 mg/kg-day

- LEL [9, 23]: 45 mg/kg-day
- LEL ([11]; duration: 8 weeks, oral, diet, clinical chemistry): 75 mg/kg-day
- LEL ([11]; duration: 35 days, oral, diet, M, other): 500 mg/kg-day
Compound: CSCCC(O)C(=O)[O-].CSCCC(O)C(=O)[O-].[Cu+2] (stereo not given) [Copper, bis[2-(hydroxy-?O)-4-(methylthio)butanoato-?O]-]
- LEL ([10]; subchronic, duration: 42 days, diet, body weight): 340 mg/kg-day

- LEL ([2]; repeat dose other, F): 6 mg/kg-day
- LEL ([2]; subchronic, duration: 35 days, oral, diet, M/F, New Zealand): 6 mg/kg-day
- LEL [14]: ≤ 80 mg/kg
- LEL [15]: ≤ 25 mg/kg
- LEL ([9]; acute, duration: 3 days): ≤ 5 mg/kg-day
- LEL ([10]; acute, duration: 3 days, no effects): 10 mg/kg-day
- LEL ([11]; duration: 37 days, no effects): 25 mg/kg-day
Compound: N#CC(c1ccc(Cl)cc1)c1c(Cl)cc(-n2ncc(=O)[nH]c2=O)cc1Cl (stereo not given) [Diclazuril]
- NOEC [12]: 50.3 mg/kg
- NOEC [13]: > 10.3 µg/L
- NOAEL ([7]; chronic, duration: 2 years, M, histopathology: nonneoplastic): 2.9 mg/kg-day
- NOEC ([6]; chronic/long-term, reproduction): 50 mg/kg
- NOEC (repeat dose other, other): > 1 mg/kg-day
- NOEC [16]: 13.3 mg/kg

Compound: C/C=C/C(=O)Oc1ccccc1[N+](=O)[O-].CCCCCCCC.O=NO [Dinocap]
- NOAEL ([2]; oral): 3 mg/kg-day
- LD50 [3]: 367 mg/kg-day
- NOAEL [17]: 0.4 mg/kg-day
- LD50 ([5]; acute, oral, mortality): > 2150 mg/kg-day
- NOEL ([5]; reproduction developmental, reproduction): 27.5 mg/kg-day

Compound: CC(=O)Sc1cc(C)oc1C [Ethanethioic acid, S-(2,5-dimethyl-3-furanyl) ester]
- NOAEL ([4]; subchronic, duration: 90 days): 0.73 mg/kg-day
- NOAEL (subchronic, duration: 90 days): 0.73 mg/kg-day

Compound: CCCC[C@@H](C)[C@@H](OC(=O)C[C@@H](CC(=O)O)C(=O)O)[C@H](C[C@@H](C)C[C@H](O)CCCC[C@@H](O)C[C@H](O)[C@H](C)N)OC(=O)C[C@@H](CC(=O)O)C(=O)O [Fumonisin B1]
- LOAEL [18]: 10 mg/kg
- NOAEL [19]: 20 mg/kg
- NOAEL ([4]; subchronic): 0.2 mg/kg-day
- LOAEL [20]: 0.2 mg/kg-day
- LOAEL ([9]; chronic, duration: 253 days, diet, M, histopathology: nonneoplastic): 2.4 mg/kg-day
- LOAEL ([10]; subchronic, clinical chemistry): 0.2 mg/kg-day
- LOAEL ([11]; short-term, duration: 21 days, oral, diet, clinical chemistry): 2 mg/kg-day

Compound: OO [Hydrogen peroxide]
- NOAEL ([7]; subchronic, duration: 90 days, oral, drinking water, M/F, food consumption): 100 mg/kg-day

Compound: C=CCOC(Cn1ccnc1)c1ccc(Cl)cc1Cl (stereo not given) [Imazalil]
- NOAEL ([2]; food consumption): 10 mg/kg-day
- NOAEL ([2]; histopathology: nonneoplastic): 5 mg/kg-day

- LEL [9, 23]: 450 mg/kg-day
- LEL ([10]; subchronic, duration: 42 days, diet, clinical chemistry): 150 mg/kg-day
- LEL ([11]; duration: 8 weeks, oral, diet, no effects): 450 mg/kg-day
Compound: CSCCC(O)C(=O)[O-].CSCCC(O)C(=O)[O-].[Mn+2] (stereo not given) [Manganese, bis[2-(hydroxy-?O)-4-(methylthio)butanoato-?O]-]

Compound: Nc1nc(N)nc(N)n1 [Melamine]
- NOAEL ([4]; subchronic, duration: 13 weeks, oral): 63 mg/kg-day
- LEL ([10]; acute, duration: 3 days, diet, no effects): 400 mg/kg-day
- LEL [21]: 181 mg/kg-day
- LEL [22]: 456 mg/kg-day
